From patent US20240016781A1, “TREATMENT OF KRAS MUTANT CANCERS” (MEI Pharma, Inc., priority 2020, published 2024)

How the values were obtained:
HCT-116 (CRC, KRAS G13D) = assay: Murine xenograft tumor growth inhibition, HCT-116; assay type: in vivo, SCID mice; settings: HCT-116 xenograft; orally 50, 100, or 200 mg/kg OD for 11-14 days; all doses
Description: (§1) Voruciclib is an oral inhibitor of CDKs 9, 4, 6, and 1 currently being tested in Phase 1B clinical trials for B-cell malignancies and acute myeloid leukemia. Voruciclib inhibition of CDK9 leads to decreased expression of transcriptional targets of RNA Pol II, such as Mcl1 and MYC. To test whether Voruciclib could be effective in cancers driven by dysregulated KRAS-MYC signaling, ˜20 cancer cell lines with KRAS mutations (G12A, G12C, G12D, G12S, G12V, G13C, G13D, Q61H) were treated in preclinical studies with Voruciclib. MTS and Cell Titer Glo assays were used to monitor growth in vitro. […] To investigate MYC protein stability, MIA PACA-2 (G12C) cells were treated with 4 μM Voruciclib for 5-240 min, followed by SDS-PAGE and Western Blotting analysis with α-MYC and α-pSer62-MYC antibodies. […] A 60% decrease in pSer62 was observed after 5 min that reached 80% by 60 min. […] The ability of Voruciclib to inhibit tumor growth in vivo was also tested in murine xenograft models. KRAS mutant human cancer cells HCT-116 (CRC, KRAS G13D), SW-480 (CRC, KRAS G12V), and H-460 (NSCLC, KRAS Q61H) were injected subcutaneously into SCID mice. Once tumors reached 5-10 mm in diameter, Voruciclib or vehicle were administered orally at 50, 100, or 200 mg/kg OD for 11-14 days. Tumors were measured every 2-3 days, and growth inhibition relative to control was calculated. […]

clinical = settings: human, in vivo
From the text: Voruciclib half life is designated as t½ in the tables (expressed in hours).
Voruciclib volume of distribution is designated as Vz/F (expressed in liters).

MIA PaCa-2 xenografts = assay: CIVO intratumoral microinjection, MIA PaCa-2 xenografts; assay type: in vivo; settings: MIA PaCa-2 PDAC tumors
From the text: Replicate Tumors: n≥5. Time Point: 24 hr. Cell Line; MIA PaCa-2. Biomarker: CC3, H&E.
The original paraffin embedded fixed tumor blocks were sliced and stained for MCL-1 and total MYC using antibodies specific to each. The MYC staining is in red. The MCL-1 staining is in yellow. The nuclei are stained in blue. For MYC and MCL-1, a decrease in the signal indicates an on-target effect of VOR.

[1] = test system: Venetoclax Sensitive and Resistant Cell Lines; assay: Voruciclib + venetoclax synergy in venetoclax sensitive and resistant cell lines; assay type: cell-based
From the text: FIG. 4A: Ven Sensitive; FIG. 4B: Ven Resistant.

H-460 (NSCLC, KRAS Q61H) = assay: Murine xenograft tumor growth inhibition, H-460; assay type: in vivo, SCID mice; settings: H-460 xenograft; orally 50, 100, or 200 mg/kg OD for 11-14 days; all doses
Description: as §1

MIA Paca-2 cells = assay: Voruciclib-sensitive phosphoproteome (TMT, LC-MS/MS); assay type: cell-based; settings: voruciclib 4 μM over time
Description: Cells were treated with voruciclib (4 μM) over time. (FIG. 31A) Summary of peptide quantification after TMT labelling and analysis by LC-MS/MS. (FIG. 31B) Volcano plots of phosphosites (log 2 fold change vs −log 10 p-value).
To define the CDK9-dependent phosphoproteome, cells are treated for a short time period with VOR followed by harvesting of the cells, IMAC enrichment, 16-plex isobaric tagging, and analysis by LC/MS/MS. A time course or different doses or drug combinations for the conditions can be performed. This experiment provides insight into novel CDK9 substrates and inroads into possible therapeutic areas for CDK9 inhibition by VOR.

[2] = test system: Relapsed/Refractory B-cell malignancies; Relapsed/Refractory AML; assay: Phase 1 study in R/R B-cell malignancies and AML; assay type: in vivo, human
Description: Study population: Relapsed/Refractory B-cell malignancies; Relapsed/Refractory AML; Dose escalation with standard 3+3 design.
Endpoints: Safety and tolerability, Pharmacokinetics, Biologic correlative studies (BH3 profiling, MCL-1 expression, molecular mutations analysis), Response rates.
Voruciclib single agent dose escalation: 50 mg>100 mg>150 mg>200 mg.
Differentiation syndrome seen in 5 pts (50%) (Increased WBC without increased in blasts, bone pain, pulmonary symptoms; Response to corticosteroids).

## CN1CC[C@@H](c2c(O)cc(O)c3c(=O)cc(-c4ccc(C(F)(F)F)cc4Cl)oc23)[C@@H]1CO [Voruciclib, (+)-trans-2-(2-Chloro-4-trifluoromethylphenyl)-5,7-dihydroxy-8-(2-hydroxymethyl-1-methylpyrrolidin-3-yl)-chromen-4-one]
HCT-116 (CRC, KRAS G13D)
  tumor growth inhibition relative to control: > 50%
clinical
  additional time to clear from the tissue after it clears the plasma: 3 days
  time for the drug to be eliminated from the plasma after stopping: 5 to 10 days
  volume of distribution: High volume of distribution
  volume of distribution relative to blood volume: ~60 times
clinical; Half life
  half-life: 24 to 28 h
MIA PaCa-2 xenografts
  MYC positive cells: decrease in MYC
[1]
  synergy with Venetoclax: Synergizes with Venetoclax
H-460 (NSCLC, KRAS Q61H)
  tumor growth inhibition relative to control: > 50%
MIA Paca-2 cells
  phosphoproteome change: rapid downregulation of phosphoproteins controlling transcription of MYC
[2]; 24 pts in 3 dose levels, 10 AML and 14 B-cell malignancies
  GI toxicity or neutropenia: No GI toxicity or neutropenia at doses studied
[2]; AML
  patients with differentiation syndrome: 50%
